Measurements reported in patent publication US12370235B2, “Synthetic, non-natural antimicrobial peptides inspired by Staphylococcus auricularis delta toxin” (University of Saskatchewan, priority 2021, dated 2025).
≈ marks a conversion by molar mass, not a printed value. Ends that are not written are not given here. Peptide text beside a SMILES is read from it. * marks the point of attachment. For = O=C*

Experiments:
[1] = tested on: Mannheimia haemolytica ATCC 33393; assay: MIC, broth dilution; type: cell-based; conditions: Table 11; highest concentration 25 μg/mL
Method in brief: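 Peptides (95% purity) in 2-fold dilution series were mixed with M. haemolytica diluted to OD 6×10^−4 in cation-adjusted Mueller Hinton broth and incubated standing overnight at 37 °C. MIC was the lowest concentration with no visible growth.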

C. albicans MYA-2876 = assay: MIC, YPD broth; type: cell-based, Candida albicans; conditions: Table 8
Method in brief: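 Minimum inhibitory concentrations against Candida albicans were determined in YPD broth (10 g/L yeast extract, 20 g/L peptone, 20 g/L dextrose) using peptides of 95% purity. A 180 μl volume of diluted yeast was combined with 20 μl of peptide in a 2-fold dilution series in 96-well plates, with sterile water as control, then incubated standing overnight at 37° C.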

[2] = tested on: Candida duobushaemulonii AR 392; assay: MIC, YPD broth, CDC and FDA AR Candida isolate panel; type: cell-based; conditions: Table 9 top part: titrations from 1.56 to 100 μg/mL
Method in brief: (§1)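 Using peptides at 95% purity, yeast suspensions adjusted to an optical density of […] received two-fold diluted peptide, were held static overnight at 37° C, and were compared against sterile-water controls.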

Kodamae ohmeri AR 396 = assay: as above; type: cell-based; conditions: Table 9 top part: titrations from 1.56 to 100 μg/mL
Method in brief: as §1

[3] = Circular dichroism spectroscopy; type: physicochemical; conditions: CD, 50% (v/v) TFE
Method in brief: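 Secondary structure of peptides dissolved in water at 0.3–0.5 mg/mL was assessed by CD. Spectra were recorded from 180 to 260 nm at room temperature in a 0.1 cm quartz cuvette; water and 50% (v/v) TFE conditions were compared.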

HeLa cells = type: cell-based; conditions: 24 h, alamarBlue
Description: Peptide cytotoxicity. In vitro cytotoxicity was measured using the 3D EpiDerm skin tissues and HeLa Cells using a fluorescent reporter of cell viability, alamarBlue (ThermoFisher Scientific). 3D EpiDerm skin tissues (MatTek EPI-200-AFAB) were transferred to a 12 well plate containing 600 μL of AFAB-assay medium supplemented with 10% v/v alamarBlue. […] HeLa cells were seeded in a 96-well plate (2×10^4 cells/per well) and incubated overnight at 37° C. and 5% CO2 in a humidified incubator to prepare wells at ˜50% confluency of adherent cells. After the incubation, spent DMEM was removed and cells were washed with PBS. alamarBlue-containing medium was prepared by mixing Phenol Red-free DMEM with alamarBlue solution at a 9:1 ratio and a 180 μl volume was added to each well. Cells were treated with peptides varying from 3.25 to 200 μg/mL and then incubated for 24 h. The fluorescence intensities of treated cultures were normalized to values measured for an untreated control group. After the 24 h incubation period, alamarBlue fluorescence was measured at 590 nm upon excitation at 560 nm using Varioskan Lux plate reader (Thermo Scientific) plate reader.

SspA protease = SspA protease (Staphylococcus aureus, UniProt P0C1U8); assay: SspA protease treatment, LC/MS analysis; type: in vitro ADME; conditions: in vitro, 37° C., ˜5 hours
SspA protease, sequence (P0C1U8 69-336): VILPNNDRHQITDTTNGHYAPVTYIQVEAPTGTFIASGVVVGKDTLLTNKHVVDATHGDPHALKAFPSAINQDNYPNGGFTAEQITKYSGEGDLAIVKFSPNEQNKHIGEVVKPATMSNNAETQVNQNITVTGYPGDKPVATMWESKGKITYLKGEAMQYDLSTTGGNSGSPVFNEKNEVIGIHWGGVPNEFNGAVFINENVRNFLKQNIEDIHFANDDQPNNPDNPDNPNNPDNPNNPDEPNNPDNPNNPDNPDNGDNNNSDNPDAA
Description: SspA protease treatment. SspA protease was resuspended at 2 mg/mL in 100 mM HEPES, pH 7.8. Proteolysis was achieved by incubation of 50 μg PSMs at 37° C. for ˜5 hours with 0.2 mg/mL SspA. The antimicrobial activity of the proteolytic products were assayed by spotting a 5 μL (˜45 μg) from each treated peptide on each test microorganism as described above.
HPLC/MS analysis. High performance liquid chromatography coupled to mass spectrometry (HPLC-MS) was conducted to assess the proteolytic cleavage of synthetic PSMs by the SspA protease, as described above. Both treated samples and untreated controls were incubated at 37° C. for 5 hours, and then frozen until HPLC/MS analysis. An Agilent Infinity II 1260 HPLC outfitted with a Phenomenex Lune C5 column (4.6×150 mm, 5 μm) was used to separate the peptide fragments using a binary solvent system consisting of solvent A (water, 0.05% formic acid) and solvent B (acetonitrile, 0.05% formic acid) operating at 0.7 mL/min. A 5 μl volume (˜4.5 μg) of each sample was injected at 10% solvent B, followed by a two-step gradient elution from 10 to 50% solvent B in 30 minutes, then 50 to 100% B in 10 minutes. The HPLC was coupled to an Advion CMS(L) single quadrupole mass detector through an electrospray ionization source. A line splitter from the HPLC to ESI source was used to deliver sample to the mass detector at 0.3 mL/min. An Advion expression-L CMS detector was used at low temperature and fragmentation settings: capillary temperature: 135° C., capillary voltage 120 V, source voltage offset 20 V, source gas temperature 135° C. and ESI voltage 3500 V. The range of ions detected was between 100 and 2,000 m/z.

M. luteus ATCC 4698 = assay: MIC, broth dilution; type: cell-based, Micrococcus luteus; conditions: Table 4; liquid broth
Description: MIC determination. MICs were measured using peptides with 95% purity. For bacterial studies, cation-adjusted Mueller Hinton (MH) broth was used as the growth medium whereas Yeast Peptone Dextrose (YPD; 10 g/L yeast extract, 20 g/L peptone, 20 g/L dextrose) was used for Candida spp. and other yeast. Microorganisms were diluted to an optical density of […] in MH or YPD broth and a 180 μl volume was mixed with 20 μl of peptide arrayed as a 2-fold dilution series in a flat-bottom 96-well microtitre plate. A control was performed using 20 μl of sterile water. Plates were incubated as standing cultures overnight at 37° C.
Determination of minimum inhibitory concentrations. The MICs were measured for bioactive peptides identified from the initial screen. For bacterial studies, cation-adjusted Mueller Hinton (MH) broth was used as the growth medium whereas YPD was used for C. albicans. Bacterial cultures were diluted to a OD value of 6×10^−4 in MH broth and a 180 μl volume was mixed with 20 μl of peptide arrayed as 2-fold dilution series in a 96-well plate. For the positive control, 20 μl of sterile water was used. Plates were incubated as standing cultures overnight at 37° C. The lowest peptide concentration that resulted no observed microbial growth after an overnight treatment was defined as the MIC.

S. aureus ATCC 29213 = assay: MIC, broth dilution; type: cell-based, Staphylococcus aureus
Method in brief: (§2)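 MIC defined as the lowest peptide level giving no growth after overnight standing incubation at 37° C. Bacteria at OD 6×10^−4 in cation-adjusted MH broth met 2-fold serial peptide dilutions; peptide purity 95%.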

[4] = tested on: S. aureus ATCC 33592 (MRSA SCCmec type III); assay: MIC, broth dilution; type: cell-based, Staphylococcus aureus; conditions: Table 5; STIP3 variants, highest concentration 100 μg/mL
Method in brief: as §2

[5] = tested on: S. aureus ATCC BAA-2094 (MRSA SCCmec type V); assay: MIC, broth dilution; type: cell-based, Staphylococcus aureus; conditions: Table 5; STIP3 variants, highest concentration 100 μg/mL
Method in brief: as §2

[6] = tested on: S. aureus ATCC BAA-2313 (MRSA SCCmec type XI); assay: MIC, broth dilution; type: cell-based, Staphylococcus aureus; conditions: Table 5; STIP3 variants, highest concentration 100 μg/mL
Method in brief: as §2

[7] = tested on: S. aureus ATCC BAA-41 (MRSA SCCmec type II); assay: MIC, broth dilution; type: cell-based, Staphylococcus aureus; conditions: Table 5; STIP3 variants, highest concentration 100 μg/mL
Method in brief: as §2

[8] = tested on: S. aureus ATCC BAA-42 (MRSA SCCmec type VI); assay: MIC, broth dilution; type: cell-based, Staphylococcus aureus; conditions: Table 5; STIP3 variants, highest concentration 100 μg/mL
Method in brief: as §2

[9] = tested on: S. aureus ATCC BAA-44 (MRSA SCCmec type I); assay: MIC, broth dilution; type: cell-based, Staphylococcus aureus; conditions: Table 5; STIP3 variants, highest concentration 100 μg/mL
Method in brief: as §2

Candida krusei AR 397 = assay: MIC, YPD broth, CDC and FDA AR Candida isolate panel; type: cell-based; conditions: Table 9 top part: titrations from 1.56 to 100 μg/mL
Method in brief: as §1

[10] = tested on: Candida lusitaniae AR 398; assay: as above; type: cell-based; conditions: Table 9 top part: titrations from 1.56 to 100 μg/mL
Method in brief: as §1

[11] = tested on: Saccharomyces cerevisiae AR 399; assay: as above; type: cell-based; conditions: Table 9 top part: titrations from 1.56 to 100 μg/mL
Method in brief: as §1

[12] = tested on: Saccharomyces cerevisiae AR 400; assay: as above; type: cell-based; conditions: Table 9 top part: titrations from 1.56 to 100 μg/mL
Method in brief: as §1

Compound	MIC (μg/mL) M. haemolytica [1]	MIC C. albicans MYA-2876 (C. albicans MYA-2876)	MIC (μg/mL) Candida duobushaemulonii AR 392 [2]	MIC (μg/mL) Kodamae ohmeri AR 396 (Kodamae ohmeri AR 396)	α helicity (%) [3] [%]	IC50, HeLa cell survival (HeLa cells) [µg/mL]	susceptibility to SspA cleavage (SspA protease)	MIC (μg/mL) M. luteus (M. luteus ATCC 4698) [µg/mL]	MIC (μg/mL) S. aureus (S. aureus ATCC 29213; Table 4, liquid broth) [µg/mL]	MIC S. aureus ATCC 29213 (S. aureus ATCC 29213; Table 5, STIP3 variants, highest concentration 100 μg/mL) [µg/mL]	MIC S. aureus ATCC 33592 (III) [4] [µg/mL]	MIC S. aureus ATCC BAA 2094 (V) [5] [µg/mL]	MIC S. aureus ATCC BAA 2313 (XI) [6] [µg/mL]	MIC S. aureus ATCC BAA 41 (II) [7] [µg/mL]	MIC S. aureus ATCC BAA 42 (VI) [8] [µg/mL]	MIC S. aureus ATCC BAA 44 (I) [9] [µg/mL]	MIC (μg/mL) Candida krusei AR 397 (Candida krusei AR 397) [µg/mL]	MIC (μg/mL) Candida lusitaniae AR 398 [10] [µg/mL]	MIC (μg/mL) Saccharomyces cerevisiae AR 399 [11] [µg/mL]	MIC (μg/mL) Saccharomyces cerevisiae AR 400 [12] [µg/mL]
CC[C@H](C)[C@H](NC(=O)[C@H](Cc1c[nH]c2ccccc12)NC(=O)[C@H](CCCCN)NC(=O)[C@@H](NC(=O)[C@H](CC(C)C)NC(=O)CNC(=O)CNC(=O)[C@@H](NC(=O)[C@@H](NC(=O)[C@H](CCC(=O)O)NC(=O)[C@@H](NC(=O)[C@@H](NC(=O)[C@H](CC(=O)O)NC(=O)[C@H](CCCCN)NC(=O)[C@@H](NC(=O)[C@H](CCSC)NC=O)[C@@H](C)O)[C@@H](C)CC)C(C)C)[C@@H](C)O)C(C)C)C(C)C)C(=O)N[C@@H](CC(C)C)C(=O)N[C@@H](CC(=O)O)C(=O)N[C@H](C(=O)N[C@H](C(=O)N[C@@H](CCCCN)C(=O)N[C@@H](CCCCN)C(=O)N[C@@H](Cc1ccccc1)C(=O)N[C@@H](C)C(=O)O)C(C)C)[C@@H](C)O [δ-toxin, reference compound] (For-MTKDIVETVGGLVKWILDTVKKFA-OH)	> (> symbol indicates that no inhibition was observed at the highest concentration of peptide tested: 25 μg/mL)	> (> symbol indicates that no inhibition was observed at the highest concentration of peptide tested: 100 μg/mL)	> (MIC values reported at the top of the table (above the double line) are based on titrations from 1.56 to 100 μg/mL)	> (MIC values reported at the top of the table (above the double line) are based on titrations from 1.56 to 100 μg/mL)	88	230 ± 30 (≈ 84.6 µM)	formylation protected against proteolysis	–	–	–	–	–	–	–	–	–	–	–	–	–
H-MTKDIVETVGGLVKWILDTVKKFA [δ-toxin (df), reference compound]	> (> symbol indicates that no inhibition was observed at the highest concentration of peptide tested: 25 μg/mL)	100 µg/mL	> (MIC values reported at the top of the table (above the double line) are based on titrations from 1.56 to 100 μg/mL)	> (MIC values reported at the top of the table (above the double line) are based on titrations from 1.56 to 100 μg/mL)	87	–	susceptible to SspA cleavage in vitro	–	–	–	–	–	–	–	–	–	–	–	–	–
TVGGLVKWILDTVKKFA [STIP3-1, TVGGLVKWILDTVKKFA]	–	25 µg/mL	–	–	–	200 ± 30	cleave the bioactive peptide into an inactive mixture	12.5	100	100	100	100	100	100	100	100	25	100	50	12.5
